Data taken from patent publication US20040086983A1, “Method for producing a heterocyclic compound and an aromatic carboxylic acid having one or more hydroxyl groups, and modified aromatic ring dioxygenase” (priority 2000, published 2004).

Columns and labels:
[1] = system: biphenyl dioxygenase derived from the strain Pseudomonas pseudoalcaligenes KF707 (bphA1A2A3A4) expressed in E. coli (pKF6622); type: cell-based; conditions: 5 mg substrate in 70 ml M9 medium; for conversion rate: 28° C., 2 to 3 days, ratio of HPLC peak areas (max plot 230 to 350 nm); for conversion products observed: HPLC analysis
Description: (§1) To start the conversion reaction, first, the necessary E. coli transformant cells were removed from the abovementioned glycerol stock culture with a platinum loop, suspended in 4 ml of LB medium containing 150 μg/ml ampicillin (Ap) and cultured at 28° C. for 7 to 8 hours at 175 rpm (pre-culture). […] The cells were recovered by centrifugation at 8,000 rpm for 5 minutes and suspended in 70 ml of M9 medium (supplemented with 150 μg/ml Ap, 0.4% (w/v) glucose, and 10 μg/ml thiamine) containing isopropyl-1-thio-β-D-galactopyranoside (IPTG) at a final concentration of 1 mM and 5 mg of a substrate, and the cultivation was further carried out at 28° C. for 2 to 3 days at 175 rpm. The substrate used was prepared by dissolving it in a solvent, such as ethanol, generally at a concentration of 10 mg/ml and added in an amount of 0.5 ml. On day 2 or 3 of the cultivation, the lipid was extracted by adding 70 ml of methanol and stirring for 30 minutes, and the supernatant was collected by centrifugation at 8,000 rpm for 5 minutes to obtain a crude lipid extract.
(§2) The HPLC analysis was carried out using a Puresil C18 column (4.6 mm×250 mm, Waters) at a rate of 1 ml/min. […] Conditions for development with solvents were as follows:
(§3) Solution A: water/methanol (50/50)
(§4) Solution B: methanol/2-propanol (60/40)
(§5) 0 to 5 min (solution A), 5 to 20 min (solution A)→(solution B) convex gradient (No. 3, Waters), 20 min−(solution B)
(§6) The conversion rate was expressed by a ratio of peak areas monitored at the wave length where the maximum absorbance was observed within the range from 230 to 350 nm (max plot).

[2] = system: modified biphenyl dioxygenase (modified bphA1::bphA2A3A4) expressed in E. coli (pKF2072); type: cell-based, Pseudomonas pseudoalcaligenes KF707; conditions: 5 mg substrate in 70 ml M9 medium, 28° C., 2 to 3 days, ratio of HPLC peak areas (max plot 230 to 350 nm)
Description: as §1, §2, §3, §4, §5, §6

[3] = system: modified bphA1::bphA2A3A4 expressed in Streptomyces lividans TK21 (pIJ-2072); test: Conversion experiment using recombinant actinomycetes (pIJ-2072), HPLC analysis; type: cell-based, Pseudomonas pseudoalcaligenes KF707; conditions: substrate 0.1 mg/ml, cells 10 mg/ml, 30° C., 2 days
Description: Plasmid pKF2072 was double-digested with SacI/SmaI, after which a 4.06 kb fragment containing the modified bphA1::bphA2A3A4 was excised. Then, vector pIJ6021 for actinomycetes (see E. Takano, J. White, C. J. Thompson, M. J. Bibb, Gene, 166, 133-137, 1995) was double-digested with NdeI-HindIII, and then the abovementioned 4.06 kb SacI-HindIII fragment and a synthesized DNA 5′-[…]-3′ were added. After annealing, treatment with a Klenow fragment enzyme was followed by a ligation reaction. E. coli JM109 strain was transformed, after which the objective plasmid pIJ-2072 was obtained. The pIJ-2072 was designed so that the modified bphA1 gene is located immediately downstream of a powerful actinomycetes promoter PtipA and its ribosome binding site, being followed by the bphA2A3A4 gene. Namely, the 5′ binding site is […]. The underlined segment is the ribosome binding site, and the modified bphA1 gene starts at ATG from nucleotide 18 to nucleotide 20. This plasmid pIJ-2072 was used to transform actinomycetes Streptomyces lividans TK21 (see D. A. Hopwood, M. J. Bibb, K. F. Chater et al., Genetic Manipulation of Streptomyces: A laboratory Manual, The John Innes Institute, Norwich, 1985). […]

SMILES | conversion rate [1] [%] | conversion rate [2] [%] | conversion products observed [1] | converted into its diol derivative, yield [3] [%]
c1ccc(Cn2ccnc2)cc1 [1-benzylimidazole] | 43 | 97 |  | 
c1ccc(-n2cccn2)cc1 [1-phenylpyrazole] |  | 47 | hardly observed | 
c1ccc(-n2cccc2)cc1 [1-phenylpyrrole] | 100 | 100 |  | 
Oc1ccccc1-c1nc2ccccc2o1 [2-(2-hydroxyphenyl)-benzoxazole] | 25 | 39 |  | 
Cc1ccc(-c2ccccn2)cc1 [2-(p-tolyl)pyridine] | 61 | 96 |  | 
c1ccc(Cc2ccccn2)cc1 [2-benzylpyridine] | 11 | 57 |  | 
CCCCc1cc2ccccc2o1 [2-n-butylbenzofuran] | 90 | 100 |  | 
c1ccc(-c2nc3ccccc3s2)cc1 [2-phenylbenzothiazole] | 36 | 81 |  | 
c1ccc(-c2nc3ccccc3o2)cc1 [2-phenylbenzoxazole] | 45 | 100 |  | 
c1ccc(-c2cc3ccccc3[nH]2)cc1 [2-phenylindole] | 23 | 71 |  | 
c1ccc(-c2ccc3ccccc3n2)cc1 [2-phenylquinoline] | 53 | 89 |  | ~100
Cc1ccn(-c2ccccc2)n1 [3-methyl-1-phenylpyrazole] | 63 | 100 |  | 
Cc1cccnc1-c1ccccc1 [3-methyl-2-phenylpyridine] |  | 16 | hardly observed | 
CCCCCCc1ccsc1 [3-n-hexylthiophene] | 99 | 100 |  | 
O=C1CC(c2ccccc2)c2ccccc21 (centres unmarked) [3-phenyl-1-indanone] | 93 | 97 |  | 
c1ccc(Cc2cnsc2)cc1 [4-benzylisothiazole] | 27 | 65 |  | 
c1ccc(-c2ccncn2)cc1 [4-phenylpyrimidine] |  | 100 | hardly observed | 
